Source: the supplement of paper PMC10307832

Compound: CN(C)C(=N)NC(=N)N [Metformin] + CS(=O)(=O)CCNCc1ccc(-c2ccc3ncnc(Nc4ccc(OCc5cccc(F)c5)c(Cl)c4)c3c2)o1 [Lapatinib] (partner 2 µM)
Assay: relative viability (nuclei count vs DMSO), 5 days (fraction); higher = more cells survive
Settings: first compound 10 µM
In short: (§1)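 Relative viability equals treated-well nuclei counts divided by vehicle-well nuclei counts. Counts came from 4× images of lung cancer cell lines grown in 1536-well plates for 5 days after pin-tool dosing on the day after seeding. Dosing used one drug alone or a fixed anchor-drug dose plus five library-drug doses (not always all listed) in √10 steps, and values are medians of duplicate plates.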

Cell Line	relative viability
PC-3 [JPC-3]	0.453
PC-14	0.432
RERF-LC-KJ	0.685
SK-LU-1	0.632
SK-MES-1	0.452
SW 1573	1.1
UMC-11	0.899

Same assay, conditions: first compound 31.62 µM

Cell Line	relative viability
PC-3 [JPC-3]	0.46
PC-14	0.438
RERF-LC-KJ	0.777
SK-LU-1	0.88
SK-MES-1	0.488
SW 1573	1.09
UMC-11	1.04

Same assay, conditions: first compound 100 µM

Cell Line	relative viability
PC-3 [JPC-3]	0.441
PC-14	0.37
RERF-LC-KJ	0.777
SK-LU-1	0.844
SK-MES-1	0.516
SW 1573	1.09
UMC-11	1.1

Same assay, conditions: first compound 316.23 µM

Cell Line	relative viability
PC-3 [JPC-3]	0.435
PC-14	0.36
RERF-LC-KJ	0.775
SK-LU-1	0.694
SK-MES-1	0.463
SW 1573	1.03
UMC-11	0.973

Same assay, conditions: first compound 1000 µM

Cell Line	relative viability
PC-3 [JPC-3]	0.447
PC-14	0.372
RERF-LC-KJ	0.915
SK-LU-1	0.812
SK-MES-1	0.485
SW 1573	1.18
UMC-11	1.17

Compound: CN(C)C(=N)NC(=N)N [Metformin] + C[C@@H](Oc1cc(-c2cnn(C3CCNCC3)c2)cnc1N)c1c(Cl)ccc(F)c1Cl [Crizotinib] (partner 1 µM)
Assay: as above
Settings: first compound 10 µM
In short: as §1

Cell Line	relative viability
PC-3 [JPC-3]	0.861
PC-14	0.889
RERF-LC-KJ	0.802
SK-LU-1	0.787
SK-MES-1	0.884
SW 1573	0.892
UMC-11	0.725

Same assay, conditions: first compound 31.62 µM

Cell Line	relative viability
PC-3 [JPC-3]	0.893
PC-14	0.912
RERF-LC-KJ	0.739
SK-LU-1	0.772
SK-MES-1	0.893
SW 1573	0.849
UMC-11	0.742

Same assay, conditions: first compound 100 µM

Cell Line	relative viability
PC-3 [JPC-3]	0.951
PC-14	0.896
RERF-LC-KJ	0.718
SK-LU-1	0.884
SK-MES-1	0.925
SW 1573	0.866
UMC-11	0.673

Same assay, conditions: first compound 316.23 µM

Cell Line	relative viability
PC-3 [JPC-3]	0.876
PC-14	0.769
RERF-LC-KJ	0.424
SK-LU-1	0.817
SK-MES-1	0.784
SW 1573	0.706
UMC-11	0.626

Same assay, conditions: first compound 1000 µM

Cell Line	relative viability
PC-3 [JPC-3]	0.901
PC-14	0.894
RERF-LC-KJ	0.74
SK-LU-1	0.824
SK-MES-1	0.932
SW 1573	0.815
UMC-11	0.598
